Assays:
Experiment in all cases: Bliss excess, mean over the matrix (fraction); higher = more synergy
42-MG-BA (Glioblastoma) = tested on: 42-MG-BA (Glioblastoma)
Procedure, shortened: (§1)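 After 24 hours at 37°C and 5% CO2 in 1536-well plates, cells in DMEM/F12 or RPMI plus 10% FBS received two-drug dose matrices for 72 hours. Viability came from CellTiter-Glo 2.0 luminescence and was scaled as inhibition, anchored at 0 by vehicle wells and at 1 by blank wells. Combination Emax is taken as the second-highest inhibition in the matrix, and Bliss excess as the observed combination effect less EA + EB − EA·EB, with EA and EB the single-agent effects.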

AGS (Gastric Carcinoma) = tested on: AGS (Gastric Carcinoma)
Procedure, shortened: as §1

[1] = tested on: CCRF-CEM (T-Lymphoblastic Leukemia)
Procedure, shortened: as §1

[2] = tested on: CaR-1 (Colorectal Carcinoma)
Procedure, shortened: as §1

[3] = tested on: DEL (T-Cell Non-Hodgkin's Lymphoma)
Procedure, shortened: as §1

ES4 (Ewing's Sarcoma) = tested on: ES4 (Ewing's Sarcoma)
Procedure, shortened: as §1

[4] = tested on: LB831-BLC (Bladder Carcinoma)
Procedure, shortened: as §1

[5] = tested on: LU-135 (Small Cell Lung Carcinoma)
Procedure, shortened: as §1

[6] = tested on: MDA-MB-361 (Breast Carcinoma)
Procedure, shortened: as §1

[7] = tested on: ME-1 (Acute Myeloid Leukemia)
Procedure, shortened: as §1

[8] = tested on: MFE-296 (Endometrial Carcinoma)
Procedure, shortened: as §1

[9] = tested on: NCI-H2085 (Non-Small Cell Lung Carcinoma)
Procedure, shortened: as §1

[10] = tested on: RC-K8 (B-Cell Non-Hodgkin's Lymphoma)
Procedure, shortened: as §1

[11] = tested on: Ramos-2G6-4C10 (Burkitt's Lymphoma)
Procedure, shortened: as §1

[12] = tested on: SK-ES-1 (Ewing's Sarcoma)
Procedure, shortened: as §1

[13] = tested on: SNU-5 (Gastric Carcinoma)
Procedure, shortened: as §1

T98G (Glioblastoma) = tested on: T98G (Glioblastoma)
Procedure, shortened: as §1

[14] = tested on: TE-15 (Esophageal Squamous Cell Carcinoma)
Procedure, shortened: as §1

[15] = tested on: TE-9 (Esophageal Squamous Cell Carcinoma)
Procedure, shortened: as §1

[16] = tested on: UM-UC-3 (Bladder Carcinoma)
Procedure, shortened: as §1

| Structure (SMILES) | Bliss excess (42-MG-BA (Glioblastoma)) | Bliss excess (AGS (Gastric Carcinoma)) | Bliss excess [1] | Bliss excess [2] | Bliss excess [3] | Bliss excess (ES4 (Ewing's Sarcoma)) | Bliss excess [4] | Bliss excess [5] | Bliss excess [6] | Bliss excess [7] | Bliss excess [8] | Bliss excess [9] | Bliss excess [10] | Bliss excess [11] | Bliss excess [12] | Bliss excess [13] | Bliss excess (T98G (Glioblastoma)) | Bliss excess [14] | Bliss excess [15] | Bliss excess [16] |
| --- | --- | --- | --- | --- | --- | --- | --- | --- | --- | --- | --- | --- | --- | --- | --- | --- | --- | --- | --- | --- |
| CN(CCO)CC[C@H](CSc1ccccc1)Nc1ccc(S(=O)(=O)NC(=O)c2ccc(N3CCC([C@@H](O)c4ccccc4-c4ccc(Cl)cc4)CC3)cc2)cc1S(=O)(=O)C(F)(F)F [AZD4320] + CN(C)CCCOc1ccc(-c2ccc3ncc4c(c3c2)n(C2CCOCC2)c(=O)n4C)cn1 [AZD0156] (first compound max 1 µM, 7x7, partner max 1 µM) | -0.0225 | -0.0561 | 0.023 | -0.0727 | 0.0265 | 0.0223 | -0.0403 | 0.0332 | -0.0589 | -0.0069 | -0.0346 | -0.0242 | 0.0161 | 0.026 | 0.047 | 0.0286 | -0.044 | -0.0455 | -0.0101 | -0.0219 |
| CN(CCO)CC[C@H](CSc1ccccc1)Nc1ccc(S(=O)(=O)NC(=O)c2ccc(N3CCC([C@@H](O)c4ccccc4-c4ccc(Cl)cc4)CC3)cc2)cc1S(=O)(=O)C(F)(F)F [AZD4320] + C[C@@H]1COCCN1C2=NC(=NC(=C2)C3(CC3)[S@](=N)(=O)C)C4=C5C=CNC5=NC=C4 [AZD6738] (first compound max 1 µM, 7x7, partner max 10 µM) | 0.0154 | -0.0162 | 0.0394 | 0.0178 | 0.0294 | 0.0351 | -0.0415 | 0.0417 | -0.0402 | 0.0166 | 0.0178 | -0.0912 | -0.011 | -0.0342 | 0.0339 | 0.0061 | -0.0468 | -0.041 | 0.0198 | 0.0368 |
| CN(CCO)CC[C@H](CSc1ccccc1)Nc1ccc(S(=O)(=O)NC(=O)c2ccc(N3CCC([C@@H](O)c4ccccc4-c4ccc(Cl)cc4)CC3)cc2)cc1S(=O)(=O)C(F)(F)F [AZD4320] + C[C@@H](Nc1cc(F)cc(F)c1)c1cc(C(=O)N(C)C)cc2c(=O)cc(N3CCOCC3)oc12 [AZD8186] (first compound max 1 µM, 7x7, partner max 3 µM) | 0.0453 | 0.018 | 0.0013 | -0.0193 | 0.0784 | -0.0507 | 0.0441 | 0.0404 | 0.0094 | 0.0013 | 0.0075 | -0.0231 | -0.015 | 0.175 | 0.0521 | 0.0726 | 0.0151 | -0.0335 | 0.0165 | 0.0327 |
| CN(CCO)CC[C@H](CSc1ccccc1)Nc1ccc(S(=O)(=O)NC(=O)c2ccc(N3CCC([C@@H](O)c4ccccc4-c4ccc(Cl)cc4)CC3)cc2)cc1S(=O)(=O)C(F)(F)F [AZD4320] + Cc1cc2ncnn2cc1Nc1ncc2c(n1)n(C1CCOCC1)c(=O)n2C [AZD7648] (first compound max 1 µM, 7x7, partner max 10 µM) | -0.0244 | -0.0298 | 0.0282 | -0.04 | -0.0346 | 0.0147 | 0.0041 | 0.0109 | 0.0056 | 0.0237 | -0.0185 | -0.0399 | 0.0198 | 0.0379 | 0.0809 | -0.0151 | -0.0493 | -0.046 | -0.016 | -0.0234 |
| CN(CCO)CC[C@H](CSc1ccccc1)Nc1ccc(S(=O)(=O)NC(=O)c2ccc(N3CCC([C@@H](O)c4ccccc4-c4ccc(Cl)cc4)CC3)cc2)cc1S(=O)(=O)C(F)(F)F [AZD4320] + Cn1cnc2c(F)c(Nc3ccc(Br)cc3Cl)c(C(=O)NOCCO)cc21 [Selumetinib] (first compound max 1 µM, 7x7, partner max 3 µM) | 0.0167 | 0.181 | 0.0099 | -0.0573 | 0.103 | 0.0074 | -0.0298 | 0.0266 | 0.0835 | 0.0484 | -0.0178 | 0.032 | 0.0467 | 0.138 | -0.0095 | 0.118 | 0.0206 | -0.0391 | 0.0456 | -0.0058 |
| COc1nnc2ccc(N3CCC(c4ccc(OCCN5CCN(C)C(=O)[C@H]5C)cc4)CC3)nn12 [AZD5153] + C=CCn1c(=O)c2cnc(Nc3ccc(N4CCN(C)CC4)cc3)nc2n1-c1cccc(C(C)(C)O)n1 [AZD1775] (first compound max 1 µM, partner max 1 µM) | -0.0577 | -0.0294 | -0.019 | -0.0267 | -0.0679 | -0.0223 | -0.0157 | -0.004 | -0.136 | -0.0446 | -0.0541 | -0.0223 | -0.101 | -0.0657 | -0.0279 | -0.0759 | -0.0092 | -0.001 | -0.0028 | -0.0413 |

— the supplement of paper PMC11061612
